Reference: patent US8846951B2 (AbbVie Inc., priority 2009, dated 2014)
pEC50, pKi: −log10 of the molar value. Like-named read-outs stand apart in the source and are kept apart here.

Key:
5HT2C receptors [1] = target: T1, 5HT2C receptors (Homo sapiens, UniProt P28335); test: Human 5-HT2C functional assay in 1321N1 cells (intracellular calcium, FLIPR); assay type: cell-based; parameters: expressed in transfected cells; host or cells: 1321N1 cells; details: 5-HT2c agonist activity, maximum calcium response
T1 sequence (P28335 33-458): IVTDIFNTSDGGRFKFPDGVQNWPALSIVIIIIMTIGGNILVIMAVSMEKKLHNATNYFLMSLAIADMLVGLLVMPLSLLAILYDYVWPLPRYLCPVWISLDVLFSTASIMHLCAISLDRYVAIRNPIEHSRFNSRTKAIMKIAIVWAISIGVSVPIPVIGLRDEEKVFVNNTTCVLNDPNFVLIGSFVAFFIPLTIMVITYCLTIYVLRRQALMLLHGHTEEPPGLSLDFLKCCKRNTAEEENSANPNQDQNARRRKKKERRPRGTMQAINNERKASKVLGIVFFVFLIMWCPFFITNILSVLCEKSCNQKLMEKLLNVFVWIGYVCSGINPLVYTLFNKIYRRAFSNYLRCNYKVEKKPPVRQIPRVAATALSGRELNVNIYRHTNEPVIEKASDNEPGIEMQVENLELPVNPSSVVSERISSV
Procedure: (ii) Human 5-HT2C Functional Assay in 1321N1 Cells
Functional activity was determined by testing the effect of the compounds on intracellular calcium levels in 1321N1 cells stably transfected with the human 5-HT2C receptor. Cells were seeded into 96-well plates at 50,000 cells/well and grown overnight in tissue culture medium (DMEM with Glutamax I (Invitrogen), containing 10% dFCS, 50 μg/mL Gentamicin, 400 μg/mL Geneticin) at 37° C. and 7% CO2. Growth medium was replaced by medium without dFCS for overnight incubation. Cells were loaded with a fluorescent calcium-sensitive dye in the presence of 1% probenicid according to the manufacturer's protocol (Fluo4 AM, Molecular Devices). Serial compound dilutions (final concentrations 10^−10 to 10^−5 M) were added to the cells either alone or in the presence of serotonin (10^−9 M) and the maximum calcium response was determined using a FLIPR instrument (Molecular Devices). Concentration-response curves were fitted using a four-parameter logistic equation (GraphPad Prism). The concentration at which the compound exerts half its maximal effect is named the ‘effective concentration 50’ or ‘EC50’ and is listed in Table 2.

[2] = target: T2, human serotonin 5-HT2c receptor (Homo sapiens, UniProt P28335); test: Human 5-HT2C receptor radioligand binding assay (agonist site, [125I]DOI); details: 5-HT2c agonist site; transfected CHO cell membranes; 0.2 nM [125I](±)DOI
T2 construct: expressed in transfected cells; host or cells: CHO cells (membrane homogenates)
T2 sequence (P28335 33-458): T1 sequence (P28335 33-458)
Procedure: (i) Human 5-HT2C Receptor Radioligand Binding Assay
Affinity of compounds for the agonist site of the […], receptor in transfected CHO cells was determined in a radioligand binding assay essentially as described by Bryant, H. U., et al., Life Sciences (1996) 59(15), 1259-1268.

5HT2C receptors [3] = target: T1, 5HT2C receptors; test: Human 5-HT2C functional high throughput screening assay in CHO-K1 cells (calcium flux); assay type: cell-based; parameters: expressed in transfected cells; host or cells: CHO-K1 cells; details: for pEC50: CHO-K1 cells, calcium flux; for Emax: 5-HT2C, maximum functional response as percentage relative to the effect of serotonin
In short: (§1)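 FLIPR calcium readout, ex 480/em 530 nm, 25 °C, 3 min post-addition; agonist response normalized to serotonin, 4-parameter fit → EC50, Emax (% serotonin). Cells: frozen CHO-K1 stable lines, serum-free overnight, Ca4 dye + 2.5 mM probenecid, 60 min RT dark.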

5HT2B receptors = target: T3, 5HT2B receptors (Homo sapiens, UniProt P41595); test: Human 5-HT2B functional high throughput screening assay in CHO-K1 cells (calcium flux); assay type: cell-based; details: for pEC50: CHO-K1 cells, calcium flux
T3 construct: expressed in transfected cells; host or cells: CHO-K1 cells
In short: as §1

[4] = 5-HT2C agonist activity, read-out: EC50
[5] = 5-HT2B agonist activity, read-out: EC50
[6] = 5-HT2B, maximum functional response as percentage relative to the effect of serotonin

T3 sequence (P41595 whole entry): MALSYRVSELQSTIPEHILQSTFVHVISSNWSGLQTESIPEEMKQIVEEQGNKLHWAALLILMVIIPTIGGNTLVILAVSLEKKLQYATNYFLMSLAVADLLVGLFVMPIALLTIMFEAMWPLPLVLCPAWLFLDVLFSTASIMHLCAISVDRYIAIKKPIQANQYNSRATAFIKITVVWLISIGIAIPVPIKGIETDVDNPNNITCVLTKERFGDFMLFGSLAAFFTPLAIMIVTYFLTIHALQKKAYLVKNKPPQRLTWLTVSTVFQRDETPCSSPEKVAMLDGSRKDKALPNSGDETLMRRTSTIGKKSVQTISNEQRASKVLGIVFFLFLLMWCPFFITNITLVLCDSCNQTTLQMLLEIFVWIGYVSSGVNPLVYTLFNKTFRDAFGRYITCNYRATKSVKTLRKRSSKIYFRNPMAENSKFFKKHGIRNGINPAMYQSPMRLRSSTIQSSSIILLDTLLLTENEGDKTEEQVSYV

Compound	pEC50 (5HT2C receptors [1])	pKi [2]	other results
O=C1NC[C@@H]2CN(Cc3ccccc3)C[C@H]2c2c(F)cccc21 (relative stereo) [Example 65, Trans-2-benzyl-10-fluoro-1,2,3,3a,4,5-hexahydrobenzo[c]pyrrolo[3,4-e]azepin-6(10bH)-one]	7.69	7.28	pEC50 (5HT2C receptors [3]; [4]): 7.70; Emax (5HT2C receptors [3]; CHO-K1, read-out: Emax): 120%; pEC50 (5HT2B receptors; [5]): < 5.00; Emax (5HT2B receptors; [6]): inactive
COC(=O)c1cccc(CN2C[C@H]3CNC(=O)c4ccccc4[C@@H]3C2)c1 (relative stereo) [Example 68, Trans-methyl-3-((6-oxo-1,3a,4,5,6,10b-hexahydrobenzo[e]pyrrolo[3,4-c]azepin-2(3H)-yl)methyl)benzoate]	8.40	8.00	pEC50 (5HT2C receptors [3]; [4]): 8.15; Emax (5HT2C receptors [3]; CHO-K1, read-out: Emax): 120%; pEC50 (5HT2B receptors; [5]): < 5.00; Emax (5HT2B receptors; [6]): inactive
O=C1NC[C@@H]2CN(Cc3cc(Cl)ccc3F)C[C@H]2c2ccccc21 (relative stereo) [Example 70, Trans-2-(5-chloro-2-fluorobenzyl)-1,2,3,3a,4,5-hexahydrobenzo[e]pyrrolo[3,4-c]azepin-6(10bH)-one]	8.75	7.44	–
Cc1cccc(CN2C[C@H]3CNC(=O)c4ccccc4[C@@H]3C2)c1C (relative stereo) [Example 27, Trans-2-(2,3-dimethylbenzyl)-1,2,3,3a,4,5-hexahydrobenzo[c]pyrrolo[3,4-e]azepin-6(10bH)-one]	6.58	6.68	–
COc1ccccc1CN1C[C@H]2CNC(=O)c3ccccc3[C@@H]2C1 (relative stereo) [Example 29, Trans-2-(2-methoxybenzyl)-1,2,3,3a,4,5-hexahydrobenzo[c]pyrrolo[3,4-e]azepin-6(10bH)-one]	7.57	7.15	–
O=C1NC[C@H]2CN(Cc3ccccc3)C[C@@H]2c2ccc(F)cc21 [Example 61, (3aS,10bS)-2-Benzyl-8-fluoro-1,2,3,3a,4,5-hexahydrobenzo[e]pyrrolo[3,4-e]azepin-6(10bH)-one]	8.49	8.19	Emax (5HT2C receptors [3]; CHO-K1): > 120%; pEC50 (5HT2C receptors [3]; EC50, 5-HT2C agonist activity): 8.24; Emax (5HT2B receptors; CHO-K1): 10%; pEC50 (5HT2B receptors; EC50, 5-HT2B agonist activity): 6.70
(3aR,10bS)-1,2,3,3a,4,5-Hexahydrobenzo[e]pyrrolo[3,4-c]azepin-6(10bH)-one [Example 47]	9.24	8.21	pEC50 (5HT2C receptors [3]; [4]): 9.52; Emax (5HT2C receptors [3]): >120%; pEC50 (5HT2B receptors; [5]): 7.70; Emax (5HT2B receptors; [6]): 100%
O=C1NC[C@@H]2CNC[C@H]2c2c(Cl)cccc21 (relative stereo) [Example 49]	7.32	6.77	–
O=C1NC[C@@H]2CNC[C@H]2c2cccc(F)c21 (single isomer, unassigned) [Example 60, Trans-7-fluoro-1,2,3,3a,4,5-hexahydrobenzo[c]pyrrolo[3,4-e]azepin-6(10bH)-one]	8.12	7.36	Emax (5HT2C receptors [3]; CHO-K1): 120%; pEC50 (5HT2C receptors [3]; EC50, 5-HT2C agonist activity): 8.15; Emax (5HT2B receptors; CHO-K1): 80%; pEC50 (5HT2B receptors; EC50, 5-HT2B agonist activity): 6.05
O=C1NC[C@@H]2CNC[C@H]2c2ccc(F)cc21 (relative stereo) [Example 57, Trans-8-fluoro-1,2,3,3a,4,5-hexahydrobenzo[c]pyrrolo[3,4-e]azepin-6(10bH)-one]	8.12	7.59	Emax (5HT2C receptors [3]; CHO-K1): 120%; pEC50 (5HT2C receptors [3]; EC50, 5-HT2C agonist activity): 8.22; Emax (5HT2B receptors; CHO-K1): 100%; pEC50 (5HT2B receptors; EC50, 5-HT2B agonist activity): 6.15
O=C1NC[C@@H]2CN(Cc3ccccc3)C[C@H]2c2cc(Cl)ccc21 (relative stereo) [Example 51, Trans-2-benzyl-9-chloro-1,2,3,3a,4,5-hexahydrobenzo[e]pyrrolo[3,4-c]azepin-6(10bH)-one]	7.08	6.96	–
COc1cccc(CN2C[C@H]3CNC(=O)c4ccccc4[C@@H]3C2)c1 (relative stereo) [Example 28, Trans-2-(3-methoxybenzyl)-1,2,3,3a,4,5-hexahydrobenzo[c]pyrrolo[3,4-e]azepin-6(10bH)-one]	8.40	7.85	pEC50 (5HT2C receptors [3]; [4]): 9.00; Emax (5HT2C receptors [3]; CHO-K1, read-out: Emax): > 120%; pEC50 (5HT2B receptors; [5]): 7.15; Emax (5HT2B receptors; CHO-K1, 5-HT2B, maximum functional response as percentage relative to the effect of serotonin, read-out: Emax): 55%
O=C1NC[C@@H]2CN(Cc3ccccc3)C[C@H]2c2ccc(Cl)cc21 (relative stereo) [Example 45, Trans-2-benzyl-8-chloro-1,2,3,3a,4,5-hexahydrobenzo[c]pyrrolo[3,4-e]azepin-6(10bH)-one]	8.23	8.16	–
O=C1NC[C@@H]2CN(Cc3ccccc3)C[C@H]2c2cccc(F)c21 (relative stereo) [Example 58, Trans-2-benzyl-7-fluoro-1,2,3,3a,4,5-hexahydrobenzo[e]pyrrolo[3,4-c]azepin-6(10bH)-one]	7.54	7.51	pEC50 (5HT2C receptors [3]; [4]): 7.52; Emax (5HT2C receptors [3]; CHO-K1, read-out: Emax): 110%; pEC50 (5HT2B receptors; [5]): < 5.00; Emax (5HT2B receptors; [6]): inactive
O=C1NC[C@@H]2CN(Cc3ccccc3)C[C@H]2c2ccc(F)cc21 (relative stereo) [Example 55, Trans-2-benzyl-8-fluoro-1,2,3,3a,4,5-hexahydrobenzo[e]pyrrolo[3,4-c]azepin-6(10bH)-one]	7.97	8.04	Emax (5HT2C receptors [3]; CHO-K1): 120%; pEC50 (5HT2C receptors [3]; EC50, 5-HT2C agonist activity): 7.40; Emax (5HT2B receptors; [6]): inactive; pEC50 (5HT2B receptors; EC50, 5-HT2B agonist activity): < 5.00
O=C1NC[C@@H]2CNC[C@H]2c2ccc(Cl)cc21 (relative stereo) [Example 46, Trans-8-chloro-1,2,3,3a,4,5-hexahydrobenzo[e]pyrrolo[3,4-c]azepin-6(10bH)-one]	8.94	7.96	–
O=C1NC[C@@H]2CN(Cc3ccccc3)C[C@@H]2c2cccc(F)c21 (relative stereo) [Example 59, Cis-2-benzyl-7-fluoro-1,2,3,3a,4,5-hexahydrobenzo[c]pyrrolo[3,4-e]azepin-6(10bH)-one]	6.94	6.68	pEC50 (5HT2C receptors [3]; [4]): 7.00; Emax (5HT2C receptors [3]; CHO-K1, read-out: Emax): 120%; pEC50 (5HT2B receptors; [5]): < 5.00; Emax (5HT2B receptors; [6]): inactive
CN1C[C@H]2CNC(=O)c3ccccc3[C@@H]2C1 (relative stereo) [Example 69, Trans-2-methyl-1,2,3,3a,4,5-hexahydrobenzo[c]pyrrolo[3,4-e]azepin-6(10bH)-one]	8.06	7.32	Emax (5HT2C receptors [3]; CHO-K1): 120%; pEC50 (5HT2C receptors [3]; EC50, 5-HT2C agonist activity): 8.05; Emax (5HT2B receptors; CHO-K1): 70%; pEC50 (5HT2B receptors; EC50, 5-HT2B agonist activity): 6.30
O=C1NC[C@@H]2CN(Cc3cc(Cl)cc(Cl)c3)C[C@H]2c2ccccc21 (relative stereo) [Example 30, Trans-2-(3,5-dichlorobenzyl)-1,2,3,3a,4,5-hexahydrobenzo[c]pyrrolo[3,4-e]azepin-6(10bH)-one]	8.68	8.47	–
O=C1NC[C@@H]2CNC[C@H]2c2cc(Cl)ccc21 (relative stereo) [Example 52, Trans-9-chloro-1,2,3,3a,4,5-hexahydrobenzo[e]pyrrolo[3,4-c]azepin-6(10bH)-one]	6.80	6.07	–
O=C1NC[C@@H]2CN(Cc3ccccc3)C[C@@H]2c2c(F)cccc21 (relative stereo) [Example 66, Cis-2-benzyl-10-fluoro-1,2,3,3a,4,5-hexahydrobenzo[c]pyrrolo[3,4-e]azepin-6(10bH)-one]	6.75	6.54	–
O=C1NC[C@@H]2CN(Cc3ccccc3)C[C@H]2c2c(Cl)cccc21 (relative stereo) [Example 48, Trans-2-benzyl-10-chloro-1,2,3,3a,4,5-hexahydrobenzo[e]pyrrolo[3,4-c]azepin-6(10bH)-one]	7.85	7.66	–
